The text below walks through data of US20250368683A1, “METHOD FOR TREATING OR PREVENTING BRONCHIAL ALLERGIC DISEASES WITH PEPTIDE COMPOSITION” (Greenyn Biotechnology Co., Ltd, priority 2024, published 2025).

Holding throughout (format): cell-based, mouse
One test relates to IL-4. Put plainly: Cell test: IL-4 secretion by P815 cells stimulated with compound 48/80 (ELISA). The following applies: 20 minutes pre-incubation with polypeptide, then compound 48/80, total 6 hours, supernatant ELISA. Also on record: unit not given here. On the procedure: (§1) In this example, the cell line used was the P815 mouse mastocytoma cell line, and the allergen was compound 48/80. To start with, each of the polypeptides represented by SEQ ID No. 1-10 was co-cultured with the P815 cells for 20 minutes, was then added with compound 48/80, and then continued co-culturing for a total of 6 hours. When the culturing process was completed, the supernatants were collected, and the amounts of IL-4 and IL-13 secretions were analyzed by enzyme-linked immunosorbent assay (ELISA), with the results shown in FIG. 1 and Table 2.
A general note: In an ELISA, binding on a coated surface is turned into a signal by an enzyme label.

Another test relates to IL-13. Put plainly: Cell test: IL-13 secretion by P815 cells stimulated with compound 48/80 (ELISA). More on the design: IL-13 inhibitory activity: unit not given here. Particulars: for IL-13 inhibitory activity: 20 minutes pre-incubation with polypeptide, then compound 48/80, total 6 hours, supernatant ELISA; for IL-13 inhibitory activity (in words): compound 48/80. Here is the method: as §1

In a further test the test system is Th2 pathway. Description: Cell test: overall inhibitory activity on the Th2 pathway (IL-4 and IL-13, P815 cells). Particulars: all in all, from IL-4 and IL-13 results in P815 cells. On the procedure: as §1
It can be known from the results in FIG. 1 and Table 2 that the polypeptides represented by SEQ ID No. 1-10 had IL-4 inhibitory activity; that the polypeptides represented by SEQ ID NO.

With INFVTEEDKR [SEQ ID No. 1], the IL-4 inhibitory activity with IL-4 was −25.2. For the same sequence, the IL-13 inhibitory activity in the test with IL-13 came out at 0.0.

For NFIVTGLQDIM [SEQ ID No. 9], the IL-4 inhibitory activity with IL-4 was −11.5. In the test with IL-13, the IL-13 inhibitory activity is −57.1 and the “IL-13 inhibitory activity (in words)” value is “had IL-13 inhibitory activity”. For the same sequence, in the test on Th2 pathway, the “inhibitory activity on the Th2 pathway (in words)” value is on record as “relatively good inhibitory activity”.

Consider ALYPLLTTLTD [SEQ ID No. 5], for which the IL-4 inhibitory activity with IL-4 is −13.1. Further, in the test on IL-13, the IL-13 inhibitory activity was −71.4 and the “IL-13 inhibitory activity (in words)” value is on record as “had IL-13 inhibitory activity”.

In the case of GHCGCSSG [SEQ ID No. 8], the IL-4 inhibitory activity in the test with IL-4 is −38.5. Besides, the IL-13 inhibitory activity with IL-13 amounted to 0.0. In addition, in the test with Th2 pathway, the “inhibitory activity on the Th2 pathway (in words)” value is listed as “relatively good inhibitory activity”.

Consider LVGTDVATAQAP [SEQ ID No. 7], for which, in the test with IL-4, the IL-4 inhibitory activity is listed as −23.9. Besides, the IL-13 inhibitory activity with IL-13 came to 0.0.

As for VRYLEWSNIESIIA [SEQ ID No. 6], the IL-4 inhibitory activity with IL-4 is −22.2. The IL-13 inhibitory activity in the test with IL-13 is −60.7. Also, the “inhibitory activity on the Th2 pathway (in words)” value in the test with Th2 pathway is on record as “relatively good inhibitory activity”.

As to SMNLSLVLQVV [SEQ ID No. 4], in the test with IL-4, the IL-4 inhibitory activity is −32.9. Further, in the test with IL-13, the IL-13 inhibitory activity is −21.4 and the “IL-13 inhibitory activity (in words)” value is listed as “had IL-13 inhibitory activity”. Further, the “inhibitory activity on the Th2 pathway (in words)” value in the test with Th2 pathway is “relatively good inhibitory activity”.

Regarding LGVTNINISDP [SEQ ID No. 2], the IL-4 inhibitory activity in the test on IL-4 is −16.0. The IL-13 inhibitory activity in the test on IL-13 is 0.0.

As to IGVDEHYTPI [SEQ ID No. 10], the IL-4 inhibitory activity in the test with IL-4 is −7.2. Moreover, the IL-13 inhibitory activity with IL-13 is 0.0.

As to RLTDYFTID [SEQ ID No. 3], in the test with IL-4, the IL-4 inhibitory activity is given as −8.9. For the same sequence, the IL-13 inhibitory activity with IL-13 came to 0.0.
